Results: ChEMBL document CHEMBL2439955, “Synthesis and biological evaluation of 5-carbamoyl-2-phenylpyrimidine derivatives as novel and potent PDE4 inhibitors” (Bioorg Med Chem, 2013)

How the values were obtained:
[1] = test system: Splenocyte; experiment: Inhibition of LPS-induced TNFalpha production in Balb/c mouse splenocytes after 18 to 24 hrs by AlphaLISA assay; assay type: functional, cell-based
[2] = target: T1, 3',5'-cyclic-AMP phosphodiesterase 4B (Homo sapiens, UniProt Q07343); experiment: Inhibition of recombinant human PDE4B using cAMP as substrate after 30 mins
T1 sequence (Q07343 whole entry): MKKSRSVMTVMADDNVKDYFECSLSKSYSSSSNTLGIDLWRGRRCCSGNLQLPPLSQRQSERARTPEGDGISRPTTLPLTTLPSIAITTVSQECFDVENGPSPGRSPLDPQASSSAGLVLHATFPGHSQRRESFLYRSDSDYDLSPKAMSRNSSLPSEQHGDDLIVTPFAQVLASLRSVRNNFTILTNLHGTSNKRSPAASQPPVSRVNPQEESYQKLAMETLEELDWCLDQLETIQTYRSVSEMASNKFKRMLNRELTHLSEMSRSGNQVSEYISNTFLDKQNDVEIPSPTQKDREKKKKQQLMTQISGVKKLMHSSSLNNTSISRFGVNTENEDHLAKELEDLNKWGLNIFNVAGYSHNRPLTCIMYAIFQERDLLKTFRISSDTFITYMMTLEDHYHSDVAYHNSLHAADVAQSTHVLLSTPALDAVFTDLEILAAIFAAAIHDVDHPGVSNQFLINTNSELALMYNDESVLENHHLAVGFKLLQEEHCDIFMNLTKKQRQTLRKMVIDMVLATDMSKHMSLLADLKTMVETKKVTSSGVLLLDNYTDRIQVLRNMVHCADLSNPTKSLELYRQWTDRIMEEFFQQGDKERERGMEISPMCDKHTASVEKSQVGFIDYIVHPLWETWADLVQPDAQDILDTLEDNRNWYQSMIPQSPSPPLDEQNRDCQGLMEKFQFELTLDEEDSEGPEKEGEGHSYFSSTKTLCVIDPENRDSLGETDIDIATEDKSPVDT

[3] = Cmax in mouse at 10 mg/kg, ip; assay type: ADME, organism-based; set-up: dose 10 mg/kg, route intraperitoneal; settings: in vivo
[4] = Terminal half life in mouse at 10 mg/kg, ip; assay type: ADME, organism-based; set-up: dose 10 mg/kg, route intraperitoneal; settings: in vivo, read-out: beta t1/2 (converted)
[5] = AUC in mouse at 10 mg/kg, ip; assay type: ADME, organism-based; set-up: dose 10 mg/kg, route intraperitoneal; settings: plasma
[6] = test system: Mus musculus; experiment: Inhibition of LPS-induced pulmonary neutrophilia in ip dosed BALB/c mouse assessed as reduction of neutrophils level in bronchoalveolar lavage fluid administered 30 mins before LPS challenge measured after 4 to 5 hrs; assay type: functional; settings: read-out: ID50 (the source's name)
[7] = Metabolic stability of the compound in mouse liver microsomes after 30 mins; assay type: ADME, Microsome; settings: read-out: Stability
[8] = Octanol-phosphate buffered saline distribution coefficient, log D of the compound at pH 7.4; assay type: physicochemical
[9] = target: T1, 3',5'-cyclic-AMP phosphodiesterase 4B; experiment: Inhibition of recombinant human PDE4B using cAMP as substrate at 10 uM after 30 mins
[10] = test system: Mus musculus; experiment: Inhibition of LPS-induced pulmonary neutrophilia in BALB/c mouse assessed as reduction of neutrophils level in bronchoalveolar lavage fluid at 1 mg/kg administered intratracheally 30 mins before LPS challenge measured after 4 to 5 hrs; assay type: functional; settings: route endotracheal
[11] = target: T1, 3',5'-cyclic-AMP phosphodiesterase 4B; experiment: Inhibition of recombinant human PDE4B using cAMP as substrate at 1 uM after 30 mins
[12] = target: T1, 3',5'-cyclic-AMP phosphodiesterase 4B; experiment: Inhibition of recombinant human PDE4B using cAMP as substrate at 3 uM after 30 mins

## CC(C)(C)CNC(=O)Cc1ccc(Nc2nc(-c3cccnc3)ncc2C(N)=O)cc1
[1]
  IC50: 23 nM
[2]
  IC50: 29 nM

## O=C(O)Cc1ccc(Nc2nc(-c3ccccc3)nc3c2C(=O)NCC3)cc1
[1]
  IC50: 460 nM
[2]
  IC50: 47 nM

## NC(=O)c1cnc(-c2ccccc2)nc1Nc1ccc(CC(=O)NO)cc1
[1]
  IC50: 43 nM
[2]
  IC50: 7.1 nM

## NC(=O)c1cnc(-c2ccccc2)nc1Nc1ccc(CC(=O)O)cc1
[1]
  IC50: 690 nM
[2]
  IC50: 200 nM

## CNC(=O)c1cnc(-c2ccccc2)nc1Nc1ccc(CC(=O)O)cc1
[2]
  IC50: 8200 nM

## Cc1nc(-c2ccccc2)nc(Nc2ccc(CC(=O)O)cc2)c1C(N)=O
[2]
  IC50: 4000 nM

## CC(C)(C)CNC(=O)Cc1ccc(Nc2nc(-c3cncnc3)ncc2C(N)=O)cc1
[2]
  IC50: 110 nM

## NC(=O)Cc1ccc(Nc2nc(-c3ccccc3)ncc2C(N)=O)cc1
[1]
  IC50: 74 nM
[2]
  IC50: 120 nM

## CC(C)(C)CNC(=O)Cc1ccc(Nc2nc(-c3ccc4[nH]ccc4c3)ncc2C(N)=O)cc1
[1]
  IC50: 840 nM
[2]
  IC50: 8.2 nM

## CC(C)(C)CNC(=O)Cc1ccc(Nc2nc(-c3ccoc3)ncc2C(N)=O)cc1
[1]
  IC50: 1000 nM
[2]
  IC50: 11 nM

## NC(=O)c1cnc(-c2ccccc2)nc1Nc1ccc(CC(=O)NCC2CC2)cc1
[1]
  IC50: 18 nM
[2]
  IC50: 16 nM

## CN(C)c1ncc(C(N)=O)c(Nc2ccc(CC(=O)NCC(C)(C)C)cc2)n1
[1]
  IC50: 7.1 nM
[2]
  IC50: 16 nM

## CC(C)(C)CNC(=O)Cc1ccc(Nc2nc(-c3ccccc3)ncc2C(N)=O)cc1
[3]
  Cmax: 1490 ng/mL
[4]
  half-life: 192 min
[5]
  AUC: 3990 ng·h/mL
[6]
  ED50: 16 mg/kg
[7]
  remaining at 0.5 h: 52%
[8]
  logD: 4.9
[1]
  IC50: 3 nM
[2]
  IC50: 8.3 nM

## CC(C)(C)NC(=O)Cc1ccc(Nc2nc(-c3ccccc3)ncc2C(N)=O)cc1
[1]
  IC50: 49 nM
[2]
  IC50: 110 nM

## CN(C)C(=O)c1cnc(-c2ccccc2)nc1Nc1ccc(CC(=O)O)cc1
[9]
  inhibition: 8%

## C=C(C)c1ncc(C(N)=O)c(Nc2ccc(CC(=O)NCC(C)(C)C)cc2)n1
[1]
  IC50: 9.6 nM
[2]
  IC50: 3.7 nM

## O=C(Nc1c(Cl)cncc1Cl)c1ccc(OC(F)F)c(OCC2CC2)c1 [ROFLUMILAST]
[10]
  inhibition in vivo at 1 mg/kg: 47%
[1]
  IC50: 1.2 nM

## CC(C)CNC(=O)Cc1ccc(Nc2nc(-c3ccccc3)ncc2C(N)=O)cc1
[1]
  IC50: 12 nM
[2]
  IC50: 11 nM

## CS(=O)(=O)NC(=O)Cc1ccc(Nc2nc(-c3ccccc3)ncc2C(N)=O)cc1
[1]
  IC50: 4800 nM
[2]
  IC50: 490 nM

## CC(C)CNC(=O)Cc1ccc(Nc2nc(-c3ccccc3)nc3c2C(=O)NCC3)cc1
[10]
  inhibition in vivo at 1 mg/kg: 41%
[1]
  IC50: 0.21 nM
[2]
  IC50: 7.3 nM

## CC(C)(C)CNC(=O)Cc1ccc(Nc2nc(-c3ccsc3)ncc2C(N)=O)cc1
[11]
  inhibition: 18%

## CCCNC(=O)Cc1ccc(Nc2nc(-c3ccccc3)ncc2C(N)=O)cc1
[1]
  IC50: 47 nM
[2]
  IC50: 120 nM

## CSc1nc(-c2ccccc2)nc(Nc2ccc(CC(=O)O)cc2)c1C(N)=O
[2]
  IC50: 2000 nM

## O=C(O)Cc1ccc(Nc2nc(-c3ccccc3)ncc2C(=O)NO)cc1
[12]
  inhibition: 42%

## CC(C)(C)CNC(=O)Cc1ccc(Nc2nc(NN3CCCCC3)ncc2C(N)=O)cc1
[2]
  IC50: 6500 nM

## CC(C)(C)CNC(=O)Cc1ccc(Nc2nc(N3CCCC3)ncc2C(N)=O)cc1
[1]
  IC50: 3.8 nM
[2]
  IC50: 13 nM
